Test results from PMC5342071, “A first generation inhibitor of human Greatwall kinase, enabled by structural and functional characterisation of a minimal kinase domain construct” (Oncotarget, 2016).

Assays:
Assay type in all cases: biochemical
CDK2 = target: T1, CDK2 (Homo sapiens, UniProt P24941); experiment: CDK2 kinase assay, Histone H1 substrate, Kinase-Glo Max; details: for IC50: ± S.D.
T1 construct: made in house; host or cells: E. coli
Procedure: PKA, ROCK1 and CDK2 kinase assays
PKA and ROCK1 assays (Promega) were carried out according to the manufacturer’s protocols and CDK2 assays were carried out with Histone H1 as substrate (1 µg per 20 µl reaction) according to our Kinase-Glo Max assay. CDK2 was expressed and purified from E. coli as previously described (10). […]
(§1) Data were normalised against the AllStars negative control siRNA treated cells and values obtained from 3 – 5 biological replicates were reported as the mean ± 1 S.D.

PKA = target: T2, PKA (Homo sapiens, UniProt P17612); experiment: PKA kinase assay (Promega); details: for IC50: ± S.D.
T2 construct: purchased Promega
Procedure: (§2) hGWLFL, 100 µl of lysate was diluted 5-fold with IP buffer and combined with 3 µl anti-Flag M2 magnetic Dynabeads [Sigma-Aldrich] overnight at 4 °C. After sequential washes with IP buffer, 1:1 mix of IP and kinase assay buffers and a final wash in kinase assay buffer, the beads were then used in the kinase assay. The reaction was stopped by adding SDS loading buffer and analysed by western blot: p-ENSA and GWL levels were detected using the anti-phospho(Ser67)-ENSA and anti-MASTL(GWL, Prestige) antibodies. Activity was measured as the p-ENSA/GWL ratio and % kinase activity was normalised to the DMSO control. All kinases assays were repeated thrice per assay condition and each point on the concentration-dependent response curves represents the mean ± 1 S.D.
(§3) PKA, ROCK1 and CDK2 kinase assays […]
as §1

ROCK1 = target: T3, ROCK1 (Homo sapiens, UniProt Q13464); experiment: ROCK1 kinase assay (Promega); details: for IC50: ± S.D.
T3 construct: purchased Promega
Procedure: as §2, §3, §1

hGWL-KinDom = target: T4, hGWL-KinDom (Homo sapiens, UniProt Q96GX5); experiment: Inhibitor screen of pooled library with hGWL-KinDom (Kinase-Glo Max); details: for inhibition at 10 µM: 10 μM screening concentration, ATP concentration = 45 μM; for Rank in inhibitor screen: rank by potency in the screen
T4 construct: that encoded amino acids (aa) 1-194 + ‘RTFC’ + 740-879 of hGWL; GST (rhinovirus 3C-protease cleavable) (N, cleaved yes); made in house; host or cells: E. coli Rosetta2(DE3)
Procedure: Two small-molecule compound libraries, enriched with pharmacophores known to interact with the ATP-binding site of protein kinases, were screened as a pooled library in a Kinase-GloMax luminescence-kinase assay. page 4: […] Dynabeads [Sigma-Aldrich] overnight at 4 °C. After sequential washes with IP buffer, 1:1 mix of IP and kinase assay buffers and a final wash in kinase assay buffer, the beads were then used in the kinase assay. The reaction was stopped by adding SDS loading buffer and analysed by western blot: p-ENSA and GWL levels were detected using the anti-phospho([…] and […], Prestige) antibodies. Activity was measured as the […] ratio and % kinase activity was normalised to the DMSO control. All kinases assays were repeated thrice per assay condition and each point on the concentration-dependent response curves represents the mean ± 1 S.D. PKA, ROCK1 and CDK2 kinase assays PKA and ROCK1 assays (Promega) were carried out according to the manufacturer's protocols and CDK2 assays were carried out with Histone H1 as substrate (1 µg per 20 µl reaction) according to our Kinase-Glo Max assay. CDK2 was expressed and purified from E. coli as previously described (10). Inhibitor Screens with hGWL-KinDom Two small-molecule compound libraries, enriched with pharmacophores known to interact with the ATP- binding site of protein kinases, were kindly provided by GlaxoSmithKline and Roche. We used this pooled library (582 compounds, 10 µM screening concentrations) in a Kinase-Glo Max luminescence kinase assay (11, 12) as part of a two-point screen against hGWL-KinDom kinase activity, using ATP at fixed concentrations of […] With STU as positive control at a […] 4A,B). […] rate = 5.8%; Supplementary Figure 4A). Molecular Docking - AutoDock AT13148 and GKI-1/2 were docked into the ATP-binding site of the hGWL-KinDom crystal structure (where the disordered C-helix was homology-modelled) using AutoDock 4.2.6. PDB format files for the ligand and kinase domain were pre-processed using AutoDock Tools 1.5.6 as described in Mohamed, et al. (13). (Figure 4 and Supplementary Figure 6A,B). Immunofluorescence and Time-lapse video microscopy 2.5 X 105 HeLa cells were plated onto glass coverslips in a 6-well plate, or 4-well µ-slides [Ibidi GmbH] were seeded with 5 X 104 cells and then transfected with Qiagen AllStars negative control or Hs_MASTL_6 siRNAs (14) using Lipofectamine RNAiMax [ThermoFisher Scientific]. Media was exchanged with fresh media the next day. 48 hours after siRNA treatment, only cells to be used for immunofluorescence (IF) were treated with nocodazole (200 ng/mL) and DMSO or GKI-1 at the indicated concentration. For IF, cells were fixed, stained with primary mouse anti-GWL and rabbit anti-p-ENSA antibodies, secondary Alexa Fluor 647-conjugated anti- rabbit and Alexa Fluor 488-conjugated anti-mouse antibodies, DAPI and mounted onto glass microscope slides using Diamond Antifade Mountant [Molecular Probes, ThermoFisher Scientific]. Quantitation of IF images was performed using the […]-Content Screening Station [Olympus Life Science] which acquired 220, 40x images per cover slip. Data were normalised against the AllStars negative control siRNA treated cells and values obtained from three biological replicates were reported as the mean ± 1 S.D. To assist with selecting mitotic cells, ScanR imaging software was utilised to gate for mitotic cells using the circularity factor and total DAPI parameters. To produce time-lapse videos, after 48 hours and cell treatment with DMSO or compound (cells were treated with GKI-1 for 4-h before image acquisition) cells plated in 4-well µ-slides were imaged every 5 minutes for 8.5 hours on an Olympus IX73 microscope, using a 40 x 0.95NA air objective, and recorded on an Orca-Flash 4.0 CMOS camera [Hamatsu]. The computer program Fiji (http://www.fiji.sc/Fiji) was used to generate videos from image sequence TIF files. Data were normalised against the AllStars negative control siRNA treated cells and […]

T4 sequence (Q96GX5 with tags, fused parts or gaps limits assumed): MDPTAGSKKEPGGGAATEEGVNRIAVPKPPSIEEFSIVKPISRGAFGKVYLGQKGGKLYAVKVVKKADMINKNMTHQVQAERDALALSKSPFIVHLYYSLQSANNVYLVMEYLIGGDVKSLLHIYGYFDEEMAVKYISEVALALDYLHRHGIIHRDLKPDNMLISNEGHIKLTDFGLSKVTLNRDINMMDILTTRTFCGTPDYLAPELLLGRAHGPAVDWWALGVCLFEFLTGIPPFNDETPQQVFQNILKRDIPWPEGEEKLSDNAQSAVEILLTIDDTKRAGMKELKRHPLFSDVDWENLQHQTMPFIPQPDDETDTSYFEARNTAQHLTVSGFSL
T3 sequence (Q13464 whole entry): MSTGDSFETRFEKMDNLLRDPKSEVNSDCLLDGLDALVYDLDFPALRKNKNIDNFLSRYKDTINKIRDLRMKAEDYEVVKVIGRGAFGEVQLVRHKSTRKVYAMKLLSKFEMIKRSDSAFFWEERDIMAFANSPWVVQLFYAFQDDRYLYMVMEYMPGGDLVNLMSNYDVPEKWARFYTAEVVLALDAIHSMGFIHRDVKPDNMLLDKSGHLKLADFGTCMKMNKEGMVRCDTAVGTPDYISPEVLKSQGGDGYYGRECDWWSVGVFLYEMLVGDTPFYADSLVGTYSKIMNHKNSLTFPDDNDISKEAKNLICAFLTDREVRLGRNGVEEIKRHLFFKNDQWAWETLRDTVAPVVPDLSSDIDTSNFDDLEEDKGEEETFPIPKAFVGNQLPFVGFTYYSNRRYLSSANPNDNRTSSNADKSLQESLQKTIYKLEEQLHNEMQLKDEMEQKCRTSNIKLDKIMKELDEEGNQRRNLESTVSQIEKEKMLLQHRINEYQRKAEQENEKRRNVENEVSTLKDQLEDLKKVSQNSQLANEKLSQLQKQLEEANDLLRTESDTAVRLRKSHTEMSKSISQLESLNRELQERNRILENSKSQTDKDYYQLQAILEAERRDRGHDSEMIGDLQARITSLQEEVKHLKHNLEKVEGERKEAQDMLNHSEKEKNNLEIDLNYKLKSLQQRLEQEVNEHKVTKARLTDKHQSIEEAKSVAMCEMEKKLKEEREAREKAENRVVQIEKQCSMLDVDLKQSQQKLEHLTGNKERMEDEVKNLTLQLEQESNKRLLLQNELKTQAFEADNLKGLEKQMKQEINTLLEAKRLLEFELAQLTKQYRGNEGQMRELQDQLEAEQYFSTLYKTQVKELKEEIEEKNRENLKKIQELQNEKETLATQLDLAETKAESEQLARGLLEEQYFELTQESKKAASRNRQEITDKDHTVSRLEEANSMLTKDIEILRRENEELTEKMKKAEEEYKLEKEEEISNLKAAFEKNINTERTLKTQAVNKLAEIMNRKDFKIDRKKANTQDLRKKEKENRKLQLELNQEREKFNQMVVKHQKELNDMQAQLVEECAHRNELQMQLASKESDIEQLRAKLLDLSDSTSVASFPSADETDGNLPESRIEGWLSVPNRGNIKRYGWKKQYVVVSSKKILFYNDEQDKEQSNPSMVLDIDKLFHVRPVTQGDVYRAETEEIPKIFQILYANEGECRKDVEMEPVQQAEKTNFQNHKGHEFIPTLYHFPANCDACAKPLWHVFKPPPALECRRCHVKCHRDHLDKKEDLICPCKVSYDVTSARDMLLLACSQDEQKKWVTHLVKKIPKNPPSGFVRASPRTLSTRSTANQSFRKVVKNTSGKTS

Row | Compound | inhibitory activity towards CDK2 (CDK2; concentrations up to 100 μM) | IC50 (CDK2) | selectivity for hGWL^FL over PKA (PKA) | IC50 (PKA) | selectivity for hGWL^FL over ROCK1 (ROCK1) | IC50 (ROCK1) | inhibition at 10 µM (hGWL-KinDom) | Rank in inhibitor screen (hGWL-KinDom)
1 | Clc1ccc(Nc2cccc(-c3cn[nH]c3)c2)cc1 [GKI-1, N-(4-chlorophenyl)-3-(1H-pyrazol-4-yl)aniline] | no observable inhibitory activity | > 100 µM | greater than 8 fold | > 40 µM | 2 fold | 11.3 ± 3.4 µM |  | 
2 | CN(C)CC#Cc1cccc(C(=O)c2cnn(-c3ccc(F)cc3)c2N)c1 [GRI-3] |  |  |  |  |  |  | 39.6% | 3
3 | CCN(CC)Cc1ccc(Nc2nccc(-c3cnn4ncccc34)n2)cc1 [GRI-4] |  | 0.089 ± 0.003 µM |  | > 100 µM |  | 21.6 ± 5.3 µM | 30.1% | 8
